# Measurements taken from US11253525B2, “Inhibitors of indoleamine 2,3-dioxygenase and methods of their use” (BRISTOL-MYERS SQUIBB COMPANY, priority 2018, dated 2022).
# Biological target: T1, human IDO1 (Homo sapiens, UniProt P14902)
# T1 construct: expressed in transfected cells
# Assay: HEK293 cell-based indoleamine 2,3-dioxygenase (IDO) assay
# Conditions: human IDO1/HEK293 cells, 20 hours; read-out: IDO1 HEK Human IC50
# Procedure: Assessment of Inhibitor Activity in HEK293 Cell-Based Indoleamine 2,3-Dioxygenase (IDO) Assay
# HEK293 cells were transfected with a pCDNA-based mammalian expression vector harboring human IDO1 cDNA (NM 002164.2) by electroporation. They were cultured in medium (DMEM with 10% FBS) containing 1 mg/ml G418 for two weeks. Clones of HEK293 cells that stably expressed human IDO1 protein were selected and expanded for IDO inhibition assay.
# The human IDO1/HEK293 cells were seeded at 10,000 cells per 50 μL per well with RPMI/phenol red free media contains 10% FBS in a 384-well black wall clear bottom tissue culture plate (Matrix Technologies LLC) 100 nL of certain concentration of compound was then added to each well using ECHO liquid handling systems. The cells were incubated for 20 hours in 37° C. incubator with 5% CO2.
# The compound treatments were stopped by adding trichloroacetic acid (Sigma-Aldrich) to a final concentration at 0.2%. The cell plate was further incubated at 50° C. for 30 minute. The equal volume supernatant (20 μL) and 0.2% (w/v) Ehrlich reagent (4-dimethylaminobenzaldehyde, Sigma-Aldrich) in glacial acetic acid were mixed in a new clear bottom 384-well plate. This plate was then incubated at room temperature for 30 minute. The absorbance at 490 nm was measured on Envision plate reader.
# Compound IC50 values were calculated using the counts of 500 nM of a reference standard treatment as one hundred percent inhibition, and counts of no compound but DMSO treatment as zero percent inhibition.
# T1 sequence (P14902 whole entry): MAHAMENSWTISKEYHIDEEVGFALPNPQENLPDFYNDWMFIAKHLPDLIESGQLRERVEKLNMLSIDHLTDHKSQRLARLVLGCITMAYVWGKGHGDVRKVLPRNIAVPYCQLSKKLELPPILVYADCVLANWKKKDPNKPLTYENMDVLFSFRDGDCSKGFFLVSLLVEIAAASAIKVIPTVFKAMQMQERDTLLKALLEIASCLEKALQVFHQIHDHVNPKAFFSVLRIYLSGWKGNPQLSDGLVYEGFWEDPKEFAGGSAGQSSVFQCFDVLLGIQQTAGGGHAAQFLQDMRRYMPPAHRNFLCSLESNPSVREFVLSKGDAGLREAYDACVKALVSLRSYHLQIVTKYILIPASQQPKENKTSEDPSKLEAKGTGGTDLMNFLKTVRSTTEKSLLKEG
row,IC50 [nM],Compound
1,20,"Cc1ccc(NC(=O)Nc2cc(-c3ccccc3-c3nn[nH]n3)ccc2C(CC(C)C)CC(C)C)cc1 [Example 134, 1-(4-(2,6-dimethylheptan-4-yl)-2′-(2H-tetrazol-5-yl)-[1,1′-biphenyl]-3-yl)-3-(p-tolyl)urea]"
2,464,"Cc1ccc(NC(=O)Nc2cc(OCC(=O)O)ccc2C(CC(C)C)CC(C)C)cc1 [Example 138, 2-(4-(2,6-Dimethylheptan-4-yl)-3-(3-(p-tolyl)ureido)phenoxy)acetic acid]"
3,1200,"CCO[C@@H](c1ccc(F)cc1)c1cc(Nc2ccc3nc(C)sc3c2)cc([C@@H](CC)CC(=O)O)c1 (single isomer, unassigned) [Example 115]"
4,1,"CCO[C@H](c1ccc([C@@H](CC)CC(=O)O)cc1Nc1ccc(Cl)cc1)C(F)(F)F (stereo in doubt) [Example 23, (S)-3-(3-((4-chlorophenyl)amino)-4-((R)-1-ethoxy-2,2,2-trifluoroethyl)phenyl)pentanoic acid]"
5,131,"CCO[C@H](c1ccc(F)cc1)c1cc(Nc2ccc(Cl)cc2)cc([C@@H](CC)CC(=O)O)c1 (single isomer, unassigned) [Example 113-2]"
6,19,"Cc1cc(NC(=O)Nc2cc(-c3ccccc3-c3nn[nH]n3)ccc2C(CC(C)C)CC(C)C)no1 [Example 136, 1-(4-(2,6-Dimethylheptan-4-yl)-2′-(2H-tetrazol-5-yl)-[1,1′-biphenyl]-3-yl)-3-(5-methylisoxazol-3-yl)urea]"

# Same assay, conditions: human IDO1/HEK293 cells, 20 hours; read-out: IDO1 HEK Human IC50 class (A < 50, B < 250, C < 2000)
row,IC50 [nM],Compound
1,250 to 2000,"CCOC(C)(C)c1ccc([C@H](CC)CC(=O)O)cc1NC(=O)Nc1ccc(C)cc1 (single isomer, unassigned) [Example 1]"

# Biological target: T2, indoleamine 2,3-dioxygenase (IDO) (Homo sapiens, UniProt P14902)
# T2 construct: replaced with media containing IFNγ (#285-IF/CF, R&D Systems) at a final concentration of 25 ng/mL; endogenous in cells; host or cells: HeLa (ATCC CCL-2), IFN-gamma stimulated
# T2 sequence (P14902 whole entry): as above
# Assay: HeLa cell-based indoleamine 2,3-dioxygenase (IDO) assay, kynurenine production
# Conditions: HeLa cells, IFNγ 25 ng/mL, 48 hour incubation; read-out: IDO Hela IC50
# Procedure: Assessment of Inhibitor Activity in HeLa Cell-Based Indoleamine 23-Dioxygenase (IDO) Assay
# Cells were maintained in a humidified incubator at 37° C. in 5% CO2.
# IDO activity was assessed as a function of kynurenine production as follows: HeLa cells were seeded in a 96-well culture plate at a density of 5,000 cells/well and allowed to equilibrate overnight. […] A serial dilution of each test compound was added to the cells in a total volume of 200 μL of culture medium. After a further 48 hour incubation, 170 μL of supernatant was transferred from each well to a fresh 96-well plate. 12.1 μL of 6.1N trichloroacetic acid (#T0699, Sigma-Aldrich) was added to each well and mixed, followed by incubation at 65° C. for 20 minutes to hydrolyze N-formylkynurenine, the product of indoleamine 2,3-dioxygenase, to kynurenine. The reaction mixture was then centrifuged for 10 mins at 500×g to sediment the precipitate. 100 μL of the supernatant was transferred from each well to a fresh 96-well plate. […] Kynurenine concentrations were determined by measuring absorbance at 480 nm and calibrating against an L-kynurenine (#K8625, Sigma-Aldrich) standard curve using a SPECTRAMAX® M2e microplate reader (Molecular Devices). The percentage activity at each inhibitor concentration was determined and IC50 values assessed using nonlinear regression.
row,Compound,IC50 [nM]
1,"CCO[C@H](c1ccc([C@@H](COC)CC(=O)O)cc1NC(=O)Nc1ccc(C)cc1)C(F)(F)F (single isomer, unassigned) [Example 60]",910
2,"CCO[C@H](c1ccc([C@@H](COC)CC(=O)O)cc1Nc1cnc(OC)nc1)C(F)(F)F (single isomer, unassigned) [Example 62]",40
3,"CCO[C@H](c1ccc([C@@H](CC)CC(=O)O)cc1Nc1cnc(COC)nc1)C(F)(F)F (single isomer, unassigned) [Example 27]",90
4,"CCO[C@@H](c1ccc([C@@H](CC)CC(=O)O)cc1Nc1cnc(OC)nc1)C(F)(F)F (single isomer, unassigned) [Example 43]",10
5,"CCO[C@H](c1ccc([C@H](COC)CC(=O)O)cc1Nc1ccc(C#N)c(F)c1)C(F)(F)F (single isomer, unassigned) [Example 55]",10
6,"CCOc1ncc(Nc2cc([C@@H](CC)CC(=O)O)ccc2[C@@H](OC)C(F)(F)F)cn1 (single isomer, unassigned) [Example 87]",130
7,"CCO[C@@H](c1ccc([C@H](CC)CC(=O)O)cc1Nc1cnc(OC)cn1)C(F)(F)F (relative stereo) [Example 36, (R)-3-(4-((S)-1-ethoxy-2,2,2-trifluoroethyl)-3-((5-methoxypyrazin-2-yl)amino)phenyl)pentanoic acid]",30
8,"CCO[C@@H](c1ccc([C@H](COC)CC(=O)O)cc1Nc1ccc(C#N)cc1)C(F)(F)F (relative stereo) [Example 73, (R)-3-(3-((4-cyanophenyl)amino)-4-((S)-1-ethoxy-2,2,2-trifluoroethyl)phenyl)-4-methoxybutanoic acid]",10
9,"CCO[C@H](c1ccc([C@H](CC)CC(=O)O)cc1NC(=O)Nc1ccc(Cl)cc1F)C(F)(F)F (single isomer, unassigned) [Example 9]",10
10,"CCO[C@H](c1ccc([C@H](COC)CC(=O)O)cc1Nc1ccc(C#N)cc1)C(F)(F)F (relative stereo) [Example 57, (R)-3-(3-((4-cyanophenyl)amino)-4-((R)-1-ethoxy-2,2,2-trifluoroethyl)phenyl)-4-methoxybutanoic acid]",10
11,"CCO[C@@H](c1ccc([C@H](COC)CC(=O)O)cc1Nc1cnc(OC)nc1)C(F)(F)F (single isomer, unassigned) [Example 69]",620
12,"CCOc1ncc(Nc2cc([C@H](CC)CC(=O)O)ccc2[C@H](OC)C(F)(F)F)cn1 (relative stereo) [Example 95, (R)-3-(3-((2-ethoxypyrimidin-5-yl)amino)-4-((S)-2,2,2-trifluoro-1-methoxyethyl)phenyl)pentanoic acid]",10
13,"CCOC(c1ccc(C(COC)CC(=O)O)cc1NC(=O)Nc1ccc(C)cc1)C(F)(F)F (single isomer, unassigned) [Example 52]",230
14,"CCO[C@H](c1ccc([C@@H](COC)CC(=O)O)cc1Nc1ccc(C#N)cc1)C(F)(F)F (single isomer, unassigned) [Example 65]",10

# Continued, values first:
row,IC50 [nM],Compound
1,200,"CCOc1ncc(Nc2cc([C@@H](COC)CC(=O)O)ccc2[C@H](CC)N2CCOCC2)cn1 (single isomer, unassigned) [Example 103]"
2,10,"CC[C@H](CC(=O)O)c1ccc([C@H](OC)C(F)(F)F)c(Nc2cnc(C(F)(F)F)nc2)c1 (single isomer, unassigned) [Example 96]"
3,430,"CCOc1ncc(Nc2cc([C@@H](CC)CC(=O)O)ccc2[C@H](CC)N2CCOCC2)cn1 (single isomer, unassigned) [Example 118-2]"
4,20,"CCc1ncc(Nc2cc([C@H](CC)CC(=O)O)ccc2[C@@H](CC)N2CCOCC2)cn1 (single isomer, unassigned) [Example 119]"
5,80,"CC[C@H](CC(=O)O)c1ccc([C@@H](CC)N2CCOCC2)c(Nc2cnc(C)nc2)c1 (relative stereo) [Example 120, (R)-3-(3-((2-methylpyrimidin-5-yl)amino)-4-((R)-1-morpholinopropyl)phenyl)pentanoic acid]"

# Same assay, conditions: HeLa cells, IFNγ 25 ng/mL, 48 hour incubation; read-out: IDO Hela IC50 class (A < 50, B < 250, C < 2000)
row,Compound,IC50 [nM]
1,"CC[C@H](CC(=O)O)c1ccc([C@@H](OC)C(F)(F)F)c(Nc2ccc(C#N)cc2)c1 (relative stereo) [Example 89, (R)-3-(3-((4-cyanophenyl)amino)-4-((R)-2,2,2-trifluoro-1-methoxyethyl)phenyl)pentanoic acid]",< 50
2,"CCO[C@@H](c1ccc([C@H](COC)CC(=O)O)cc1Nc1cnc(C)nc1)C(F)(F)F (single isomer, unassigned) [Example 74]",250 to 2000
3,"CCO[C@H](c1ccc([C@H](COC)CC(=O)O)cc1Nc1cnc(C)nc1)C(F)(F)F (single isomer, unassigned) [Example 59]",250 to 2000
4,"CCO[C@@H](c1ccc([C@H](CC)CC(=O)O)cc1NC(=O)Nc1ccc(Cl)cc1F)C(F)(F)F (single isomer, unassigned) [Example 32]",< 50
5,"CCO[C@@H](c1ccc([C@H](COC)CC(=O)O)cc1Nc1ncc(F)cn1)C(F)(F)F (single isomer, unassigned) [Example 71]",250 to 2000

# Further lines, results first:
row,IC50 [nM],Compound
1,< 50,"CCOc1ncc(Nc2cc([C@@H](CC)CC(=O)O)ccc2[C@H](CC)N2CCOCC2)cn1 (single isomer, unassigned) [Example 118-3]"
2,250 to 2000,"CC[C@H](c1ccc([C@@H](COC)CC(=O)O)cc1Nc1ccc(COC)nc1)N1CCOCC1 (relative stereo) [Example 109, (S)-4-methoxy-3-(3-((6-(methoxymethyl)pyridin-3-yl)amino)-4-((R)-1-morpholinopropyl)phenyl)butanoic acid]"
3,< 50,"CC[C@@H](c1ccc([C@@H](COC)CC(=O)O)cc1Nc1ccc(Cl)cc1)N1CCOCC1 (relative stereo) [Example 105, (S)-3-(3-((4-chlorophenyl)amino)-4-((S)-1-morpholinopropyl)phenyl)-4-methoxybutanoic acid]"
4,< 50,"CC[C@@H](CC(=O)O)c1ccc([C@H](OC)C(F)(F)F)c(Nc2ccc(C#N)cc2)c1 (single isomer, unassigned) [Example 97]"
